ChEMBL document CHEMBL1130642, “Conformationally constrained NO synthase inhibitors: rigid analogs of L-N-iminoethylornithine” (Bioorg Med Chem Lett, 1998)

Biological target: T1, Nitric oxide synthase, inducible (Mus musculus, UniProt P29477)
T1 sequence (P29477 whole entry): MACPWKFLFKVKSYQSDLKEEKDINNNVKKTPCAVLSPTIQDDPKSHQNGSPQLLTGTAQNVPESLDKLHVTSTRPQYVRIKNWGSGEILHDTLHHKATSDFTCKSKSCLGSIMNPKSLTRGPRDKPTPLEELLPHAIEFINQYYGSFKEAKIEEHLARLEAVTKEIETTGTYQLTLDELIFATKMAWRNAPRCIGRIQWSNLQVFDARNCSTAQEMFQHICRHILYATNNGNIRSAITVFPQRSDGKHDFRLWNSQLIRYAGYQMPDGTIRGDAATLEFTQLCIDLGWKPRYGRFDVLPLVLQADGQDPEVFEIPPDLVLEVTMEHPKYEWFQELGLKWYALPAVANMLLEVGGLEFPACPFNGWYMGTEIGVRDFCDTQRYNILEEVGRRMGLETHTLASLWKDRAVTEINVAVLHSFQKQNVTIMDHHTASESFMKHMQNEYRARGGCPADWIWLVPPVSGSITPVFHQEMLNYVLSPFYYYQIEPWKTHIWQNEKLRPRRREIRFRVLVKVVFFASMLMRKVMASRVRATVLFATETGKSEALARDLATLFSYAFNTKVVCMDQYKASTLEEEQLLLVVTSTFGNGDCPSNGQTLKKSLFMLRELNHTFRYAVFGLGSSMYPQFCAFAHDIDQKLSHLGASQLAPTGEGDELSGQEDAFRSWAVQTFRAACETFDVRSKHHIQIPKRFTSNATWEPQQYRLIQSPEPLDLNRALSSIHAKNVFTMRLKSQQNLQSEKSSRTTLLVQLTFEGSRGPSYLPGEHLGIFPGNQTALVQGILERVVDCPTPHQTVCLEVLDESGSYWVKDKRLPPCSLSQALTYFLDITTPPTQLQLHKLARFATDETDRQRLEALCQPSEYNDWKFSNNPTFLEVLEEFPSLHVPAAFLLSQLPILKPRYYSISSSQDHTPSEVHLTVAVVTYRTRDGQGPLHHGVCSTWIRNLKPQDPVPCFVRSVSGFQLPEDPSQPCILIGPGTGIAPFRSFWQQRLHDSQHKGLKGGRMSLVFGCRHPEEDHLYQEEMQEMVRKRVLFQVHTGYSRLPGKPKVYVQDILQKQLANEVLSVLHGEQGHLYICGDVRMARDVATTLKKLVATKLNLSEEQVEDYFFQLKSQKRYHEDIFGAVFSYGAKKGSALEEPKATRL
Experiment: Compound was evaluated for inhibitory activity against iNOS obtained from RAW 264.7 cells.
Type: cell-based

SMILES	IC50 [µM]
COC(=O)[C@@H](N)[C@H]1CC[C@H](/N=C(/C)N)C1	50
COC(=O)[C@@H](N)[C@@H]1CC[C@H](/N=C(/C)N)C1	> 200
COC(=O)[C@@H](N)[C@@H]1CC[C@@H](N=C(C)N)C1	> 200
NC1=NC[C@@H](C[C@H](N)C(=O)O)C1	36
CC(=N)N1CC[C@H](C[C@H](N)C(=O)O)C1	40
CC(=N)N1CC[C@@H](C[C@H](N)C(=O)O)C1	> 200
NC1=NC[C@H](C[C@H](N)C(=O)O)C1	25
COC(=O)[C@@H](N)[C@H]1CC[C@@H](N=C(C)N)C1	47
CC(=N)NCCC[C@H](N)C(=O)O [L-NIO]	9
